We go through five molecules from US10654833B2, “ASK1 isoindolin-1-one inhibitors and methods of use thereof” (Hepatikos Therapeutics, LLC, priority 2018, dated 2020).

In data set [1] the target is human OATP1B1 transporter (Homo sapiens (Human), UniProt Q9Y6L6). Put plainly: Transporter mediated cellular uptake, OATP1B1-expressing HEK293. Particulars: HEK293 stably expressing human OATP1B1, 37° C., 0.5 minutes. Type of data set: in vitro ADME. As for the experimental part:
(§1) Transporter Mediated Cellular Uptake
(§2) To determine transporter mediated cellular uptake of compounds, HEK293 stably expressing either human OATP1B1 or human OATP1B3 transporter, or mock transfected cells were cultured at 37° C. in an atmosphere of 95:5 air:CO2 DMEM/F12 medium containing 10% FBS, 100 unit/mL penicillin-G and 100 μg/mL streptomycin. Transporter expressing cell culture medium also contained 500 μg/mL G418 disulfate solution. Cells were plated onto 24-well poly-D-lysine coated culture plates at the density 5×10^5 cells/well 24 hours prior to uptake assay. Compound stock solutions were made at 1000× final concentration in 100% DMSO. Final compound solutions were prepared by diluting stock solutions into HBSS buffer (pH 7.4) On the day of the uptake assay cell culture media was removed and cells were washed twice with 300 μL of HBSS buffer (pH 7.4). Cellular uptake of compound into the cells was measured by adding 300 μL of final compound solutions in HBSS and incubating them at 37° C. for 0.5 minutes (OATP1B1) or 5 minutes (OATP1B3). Reactions were quenched by removing the buffer containing the TA and the cells were washed twice with 300 μL of HBSS buffer. Cells were lysed by adding 300 μL of MeOH:H2O (2:1) and incubated for 20 minutes at 4° C. The amount of compound in the cell lysate was determined by LC-MS/MS. The amount of protein in each well was quantified using the BCA kit for protein determination and used to normalize compound uptake (Sigma-Aldrich, St Louis, Mo., USA). • Uptake of the probe substrate in control cells provided background activity values for all data points. • Incubation with probe substrate (solvent only) provided 100% activity values. • A reference positive control was used for each transporter

Data set [2] deals with ASK1 kinase active site (Homo sapiens (Human), UniProt Q99683). Put plainly: ASK1 kinase active site binding assay (KINOMEscan). The conditions noted are these: 11-point 3-fold dilution series. As for the experimental part:
ASK1 Kinase Active Site Binding Assay
Compound binding to the ASK1 kinase active site was determined using the KINOMEscan Assay platform (DiscoverX, San Diego, Calif.). Briefly, ASK1-tagged T7 phage strains were prepared in an E. coli host derived from the BL21 strain. E. coli were grown to log-phase and infected with T7 phage and incubated with shaking at 32° C. until lysis. The lysates were centrifuged and filtered to remove cell debris. The remaining kinases were produced in HEK-293 cells and subsequently tagged with DNA for qPCR detection. Streptavidin-coated magnetic beads were treated with biotinylated small molecule ligands for 30 minutes at room temperature to generate affinity resins for kinase assays. The liganded beads were blocked with excess biotin and washed with blocking buffer (SeaBlock (Pierce), 1% BSA, 0.05% Tween 20, 1 mM DTT) to remove unbound ligand and to reduce nonspecific binding. Binding reactions were assembled by combining kinases, liganded affinity beads, and test compounds in 1× binding buffer (20% SeaBlock, 0.17×PBS, 0.05% Tween 20, 6 mM DTT). Test compounds were prepared as 111× stocks in 100% DMSO. Kds were determined using an 11-point 3-fold compound dilution series with three DMSO control points. […] The kinase concentration in the eluates was measured by qPCR. Binding constants (Kds) were calculated with a standard dose-response curve using the Hill equation. […]

Data set [3] addresses recombinant human ASK1 protein (Homo sapiens (Human), UniProt Q99683). Put plainly: ASK1 kinase activity inhibition assay (radiometric 33P incorporation into MBP). Type of data set: biochemical. The conditions noted are these: 20 μM MBP, 10 μM 33P-ATP. The method, boiled down:
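Compound (1% DMSO final) was preincubated for 20 min at room temperature with recombinant human ASK1 and 20 μM MBP in HEPES pH 7.5 buffer. Reactions started with 10 μM 33P-ATP and ran for 2 h at room temperature. 33P incorporation into MBP was measured by P81 filter binding.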

Data set [4] has as its target human OATP1B3 transporter (Homo sapiens (Human), UniProt Q9NPD5). Briefly: Transporter mediated cellular uptake, OATP1B3-expressing HEK293. Particulars: HEK293 stably expressing human OATP1B3, 37° C., 5 minutes. The data set is classed as in vitro ADME. As for the experimental part:
as §1, §2

human OATP1B1 transporter, sequence (Q9Y6L6 whole entry): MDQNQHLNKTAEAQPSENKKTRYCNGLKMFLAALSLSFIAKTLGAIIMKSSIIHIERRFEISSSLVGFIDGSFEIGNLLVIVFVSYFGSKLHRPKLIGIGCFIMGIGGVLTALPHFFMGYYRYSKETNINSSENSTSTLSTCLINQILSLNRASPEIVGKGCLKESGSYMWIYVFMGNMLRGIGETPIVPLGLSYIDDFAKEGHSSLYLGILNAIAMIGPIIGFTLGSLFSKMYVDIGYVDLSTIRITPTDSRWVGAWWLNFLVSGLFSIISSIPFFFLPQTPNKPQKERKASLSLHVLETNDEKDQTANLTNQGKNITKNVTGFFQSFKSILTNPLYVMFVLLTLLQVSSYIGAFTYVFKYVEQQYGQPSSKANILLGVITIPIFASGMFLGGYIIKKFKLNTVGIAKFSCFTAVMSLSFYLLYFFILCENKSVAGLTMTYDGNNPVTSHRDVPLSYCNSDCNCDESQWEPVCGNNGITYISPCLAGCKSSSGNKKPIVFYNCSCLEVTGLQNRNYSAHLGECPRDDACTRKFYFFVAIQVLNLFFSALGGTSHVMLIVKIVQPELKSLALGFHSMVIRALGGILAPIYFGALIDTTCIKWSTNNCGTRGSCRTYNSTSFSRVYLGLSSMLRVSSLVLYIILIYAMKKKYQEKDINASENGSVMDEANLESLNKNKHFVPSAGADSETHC
recombinant human ASK1 protein, sequence (Q99683 whole entry): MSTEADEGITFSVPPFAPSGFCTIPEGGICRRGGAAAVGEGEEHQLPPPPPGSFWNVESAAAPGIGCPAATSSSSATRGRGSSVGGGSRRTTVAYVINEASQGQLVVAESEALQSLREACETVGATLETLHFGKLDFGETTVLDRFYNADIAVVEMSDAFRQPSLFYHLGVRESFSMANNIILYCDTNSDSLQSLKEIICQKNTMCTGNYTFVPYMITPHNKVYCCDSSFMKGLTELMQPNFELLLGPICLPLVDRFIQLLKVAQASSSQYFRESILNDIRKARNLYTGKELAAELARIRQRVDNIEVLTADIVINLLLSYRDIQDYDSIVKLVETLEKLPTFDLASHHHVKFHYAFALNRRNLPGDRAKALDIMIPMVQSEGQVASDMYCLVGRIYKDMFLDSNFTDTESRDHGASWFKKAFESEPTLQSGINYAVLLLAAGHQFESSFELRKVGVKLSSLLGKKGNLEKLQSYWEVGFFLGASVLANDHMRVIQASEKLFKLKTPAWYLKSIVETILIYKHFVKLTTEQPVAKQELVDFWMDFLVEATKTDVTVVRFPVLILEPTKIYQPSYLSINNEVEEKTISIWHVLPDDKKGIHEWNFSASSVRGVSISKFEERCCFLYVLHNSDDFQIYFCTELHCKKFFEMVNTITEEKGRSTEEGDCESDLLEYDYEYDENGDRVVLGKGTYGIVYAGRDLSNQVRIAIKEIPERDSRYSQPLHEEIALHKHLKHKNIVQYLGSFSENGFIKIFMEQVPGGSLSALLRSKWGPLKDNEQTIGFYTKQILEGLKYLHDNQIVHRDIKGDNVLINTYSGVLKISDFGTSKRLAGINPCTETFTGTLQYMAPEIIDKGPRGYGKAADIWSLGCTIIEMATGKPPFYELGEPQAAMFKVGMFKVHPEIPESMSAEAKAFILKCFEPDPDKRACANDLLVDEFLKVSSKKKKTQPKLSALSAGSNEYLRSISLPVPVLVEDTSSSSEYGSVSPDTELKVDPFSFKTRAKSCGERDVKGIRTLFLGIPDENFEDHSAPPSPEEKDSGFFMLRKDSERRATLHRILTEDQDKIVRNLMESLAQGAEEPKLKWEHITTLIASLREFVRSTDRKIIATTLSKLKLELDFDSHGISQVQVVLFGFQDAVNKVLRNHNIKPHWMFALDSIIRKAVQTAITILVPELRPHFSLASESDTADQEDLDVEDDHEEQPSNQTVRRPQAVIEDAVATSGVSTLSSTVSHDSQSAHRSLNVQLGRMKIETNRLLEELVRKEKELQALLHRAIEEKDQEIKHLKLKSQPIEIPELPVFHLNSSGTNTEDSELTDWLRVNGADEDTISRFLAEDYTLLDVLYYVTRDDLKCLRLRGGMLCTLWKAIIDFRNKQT
human OATP1B3 transporter, sequence (Q9NPD5 whole entry): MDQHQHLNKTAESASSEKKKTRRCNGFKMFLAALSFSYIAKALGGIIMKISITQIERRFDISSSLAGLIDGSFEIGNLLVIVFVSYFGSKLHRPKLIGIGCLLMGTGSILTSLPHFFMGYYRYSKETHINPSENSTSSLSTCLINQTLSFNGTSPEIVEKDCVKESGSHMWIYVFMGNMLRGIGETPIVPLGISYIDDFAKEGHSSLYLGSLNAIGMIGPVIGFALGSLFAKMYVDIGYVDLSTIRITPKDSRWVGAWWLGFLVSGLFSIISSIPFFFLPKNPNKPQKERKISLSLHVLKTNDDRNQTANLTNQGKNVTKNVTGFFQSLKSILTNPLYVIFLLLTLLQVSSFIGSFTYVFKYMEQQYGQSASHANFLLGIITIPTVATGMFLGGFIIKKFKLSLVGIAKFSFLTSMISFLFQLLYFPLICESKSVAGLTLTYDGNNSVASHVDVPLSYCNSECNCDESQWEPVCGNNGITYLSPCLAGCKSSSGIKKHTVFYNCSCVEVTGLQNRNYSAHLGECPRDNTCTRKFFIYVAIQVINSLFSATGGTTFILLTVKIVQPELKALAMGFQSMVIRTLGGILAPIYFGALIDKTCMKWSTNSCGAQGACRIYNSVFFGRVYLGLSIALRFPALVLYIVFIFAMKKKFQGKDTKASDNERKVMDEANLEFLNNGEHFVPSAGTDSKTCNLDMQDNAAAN
ASK1 kinase active site, sequence (Q99683 whole entry): as the sequence (Q99683 whole entry) above

With `C[C@]12CC[C@@H]3c4ccc(OS(=O)(=O)O)cc4CC[C@H]3[C@@H]1CCC2=O` [Estrone 3-sulphate, reference compound], the “OATP1B1 Uptake (Percent of no transporter control cell)” value in data set [1] turned out to be 685%.
As for `CC(C)n1cnnc1-c1cccc(N2Cc3ccc(-c4cccc(C(=O)O)c4)cc3C2=O)n1` [Compound 1, 3-(2-(6-(4-isopropyl-4H-1,2,4-triazol-3-yl)pyridin-2-yl)-3-oxoisoindolin-5-yl)benzoic acid], in data set [2], the Kd – broadly, the concentration at which binding is half-saturated – is 0.75 nM. Besides, the IC50 in data set [3] (Table 2) and in data set [3] (Table 3) was 5.2 nM each time. Also, the “OATP1B1 Uptake (Percent of no transporter control cell)” value in data set [1] was found to be 753%. In data set [4], the “OATP1B3 Uptake (Percent of no transporter control cell)” value is given as 399%.
As for `C[C@]12CC[C@@H]3c4ccc(O)cc4CC[C@H]3[C@@H]1CC[C@@H]2O` [Estradiol, reference compound], in data set [4], the “OATP1B3 Uptake (Percent of no transporter control cell)” value turned out to be 490%.
For `CC(C)n1cnnc1-c1cccc(N2Cc3ccc(-c4cccc(C(C)(C)C(=O)O)c4)cc3C2=O)n1` [Compound 102, 2-(3-(2-(6-(4-Isopropyl-4H-1,2,4-triazol-3-yl)pyridin-2-yl)-3-oxoisoindolin-5-yl)phenyl)-2-methylpropanoic Acid], the IC50 (as a rule, the concentration at which inhibition is half-maximal) in data set [3] (Table 3) was 0.7 nM. Besides, in data set [1], the “OATP1B1 Uptake (Percent of no transporter control cell)” value is given as 221%. In data set [4], the “OATP1B3 Uptake (Percent of no transporter control cell)” value was 632%.
With `CC(C)n1cnnc1-c1cccc(N2Cc3ccc(-c4ccc(C(C)(C)C(=O)O)cc4)cc3C2=O)n1` [Compound 39, 2-(4-(2-(6-(4-isopropyl-4H-1,2,4-triazol-3-yl)pyridin-2-yl)-3-oxoisoindolin-5-yl)phenyl)-2-methylpropanoic acid], the Kd in data set [2] was 0.86 nM. Moreover, the IC50 in data set [3] (Table 2) stood at 3.3 nM. Moreover, the “OATP1B1 Uptake (Percent of no transporter control cell)” value in data set [1] was 175%. The “OATP1B3 Uptake (Percent of no transporter control cell)” value in data set [4] was found to be 316%.
